Reference: ChEMBL document CHEMBL1201862, “PubChem BioAssay data set” (2004)
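Assay format: 96-well plates, 48-hour exposure. GI50 is the concentration that inhibits growth by half.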 Active and inactive are the calls of the source. Cut-off read from the data, not from the text of the source: active = GI50 up to about 1.1 µM and inactive = higher.

How the values were obtained:
Experiment in all cases: NCI anticancer screen, dose series, 48 h
[1] = system: PC-3
[2] = system: HCC 2998
[3] = system: RPMI-8226
[4] = system: NCI-H23
[5] = system: K562
[6] = system: SNB-75
[7] = system: NCI-H460
[8] = system: SF-295
[9] = system: T47D
[10] = system: RXF 393
[11] = system: SK-MEL-28
[12] = system: A549
[13] = system: M14
[14] = system: Hs-578T
[15] = system: UO-31
[16] = system: LOX IMVI
[17] = system: SK-OV-3
[18] = system: DU-145
[19] = system: CAKI-1
[20] = system: HOP-92

| Structure (SMILES) | GI50 [1] | GI50 [2] | GI50 [3] | GI50 [4] | GI50 [5] | GI50 [6] | GI50 [7] | GI50 [8] | GI50 [9] | GI50 [10] | GI50 [11] | GI50 [12] | GI50 [13] | GI50 [14] | GI50 [15] | GI50 [16] | GI50 [17] | GI50 [18] | GI50 [19] | GI50 [20] |
| --- | --- | --- | --- | --- | --- | --- | --- | --- | --- | --- | --- | --- | --- | --- | --- | --- | --- | --- | --- | --- |
| COc1ccccc1NC(=O)O/N=C(/Cl)C(C)C | 18.5 µM (inactive) | 15.6 µM (inactive) | 2.1 µM (inactive) | 14 µM (inactive) | 2.24 µM (inactive) | 0.889 µM (active) | 19.3 µM (inactive) | 15.2 µM (inactive) | 21 µM (inactive) | 14.9 µM (inactive) | 13.6 µM (inactive) | 18.2 µM (inactive) | 5.9 µM (inactive) | 24.9 µM (inactive) | 18.8 µM (inactive) | 2.28 µM (inactive) | 18.7 µM (inactive) | 18.8 µM (inactive) |  |  |
| CC(C)=CC(=O)O[C@@H]1CC(C)(C)CC2C3=CCC4[C@]56CC[C@](O)(OC5)C(C)(C)C6CC[C@@]4(C)C3(C)CC[C@]21C(=O)O (stereo partly specified) | 33.2 µM (inactive) | > 100 µM (inactive) | 27.8 µM (inactive) | 26.1 µM (inactive) | 48 µM (inactive) |  | 35.2 µM (inactive) | 56.5 µM (inactive) | > 100 µM (inactive) | > 100 µM (inactive) | > 100 µM (inactive) | 33.7 µM (inactive) | > 100 µM (inactive) | > 100 µM (inactive) |  | 17.1 µM (inactive) | > 100 µM (inactive) | 56.4 µM (inactive) | > 100 µM (inactive) |  |
| C[N+]12C=CC=C1C(N1CCCC1)c1scc(-c3ccccc3)c12 (stereo unspecified) | 17.1 µM (inactive) |  | 5.92 µM (inactive) |  | 6 µM (inactive) | 3.99 µM (inactive) |  | 44.3 µM (inactive) | 4.25 µM (inactive) | 17.8 µM (inactive) | 37.2 µM (inactive) | 59.8 µM (inactive) | 50.2 µM (inactive) | 9.84 µM (inactive) | > 100 µM (inactive) | 37.4 µM (inactive) | > 100 µM (inactive) | 52.2 µM (inactive) | > 100 µM (inactive) |  |
| c1cc2c(cc1NC1=NCCO1)CCC2 | > 10 µM (inactive) | > 10 µM (inactive) | > 10 µM (inactive) | > 10 µM (inactive) | 9.75 µM (inactive) | 9.1 µM (inactive) |  | > 10 µM (inactive) | > 10 µM (inactive) | > 10 µM (inactive) | > 10 µM (inactive) | > 10 µM (inactive) |  | 1.03 µM (active) |  | > 10 µM (inactive) | > 10 µM (inactive) |  |  | 7.5 µM (inactive) |
| CC1(C)C=Cc2c(cc(O)c3c(=O)c4cc(Cl)ccc4[nH]c23)O1 | 2.04 µM (inactive) | 3.62 µM (inactive) | 2.29 µM (inactive) | 2.3 µM (inactive) | 1.81 µM (inactive) | 4.03 µM (inactive) | 1.98 µM (inactive) | 2.84 µM (inactive) | 3.69 µM (inactive) | 3.89 µM (inactive) | 4 µM (inactive) | 3.1 µM (inactive) |  | 0.161 µM (active) | 2.16 µM (inactive) | 3.29 µM (inactive) | 2.72 µM (inactive) |  | 3.94 µM (inactive) | 2.52 µM (inactive) |
| CCOC(=O)C(CC#Cc1ccc(C#CCC(NC(C)=O)C(=O)OCC)cc1)NC(C)=O (stereo unspecified) | > 100 µM (inactive) | > 100 µM (inactive) | > 100 µM (inactive) | > 100 µM (inactive) | > 100 µM (inactive) | > 100 µM (inactive) | > 100 µM (inactive) | > 100 µM (inactive) | > 100 µM (inactive) | > 100 µM (inactive) | > 100 µM (inactive) | > 100 µM (inactive) | > 100 µM (inactive) | > 100 µM (inactive) | > 100 µM (inactive) | > 100 µM (inactive) | > 100 µM (inactive) | > 100 µM (inactive) | > 100 µM (inactive) |  |
| Cc1nc2c(Cl)cc(Cl)cc2c(Cl)c1CCCl | 60.5 µM (inactive) | > 100 µM (inactive) | 57.5 µM (inactive) | > 100 µM (inactive) | 80.5 µM (inactive) | 42.9 µM (inactive) | > 100 µM (inactive) | > 100 µM (inactive) | 52.8 µM (inactive) | 22.8 µM (inactive) | > 100 µM (inactive) | 78.7 µM (inactive) | > 100 µM (inactive) | 51.4 µM (inactive) | 30.1 µM (inactive) | > 100 µM (inactive) | > 100 µM (inactive) | > 100 µM (inactive) | 64 µM (inactive) |  |
| Fc1ccc2c3c([nH]c2c1)CCNC3 |  | 76 µM (inactive) | > 100 µM (inactive) | > 100 µM (inactive) | > 100 µM (inactive) | > 100 µM (inactive) | > 100 µM (inactive) | 67.8 µM (inactive) | > 100 µM (inactive) | > 100 µM (inactive) | > 100 µM (inactive) | > 100 µM (inactive) | > 100 µM (inactive) | > 100 µM (inactive) | 31.8 µM (inactive) | > 100 µM (inactive) | > 100 µM (inactive) | > 100 µM (inactive) |  | 29.5 µM (inactive) |
| C=CCN1CCN([C@H](c2ccc(C(=O)N(CC)CC)cc2)c2cccc(OC)c2)CC1 | > 25 µM (inactive) |  | > 25 µM (inactive) | > 25 µM (inactive) |  |  |  | > 25 µM (inactive) | > 25 µM (inactive) |  | > 25 µM (inactive) | > 25 µM (inactive) | > 25 µM (inactive) | > 25 µM (inactive) | > 25 µM (inactive) |  | > 25 µM (inactive) | > 25 µM (inactive) | > 25 µM (inactive) | 16.8 µM (inactive) |
| CN(C)CCNC(=O)c1cc([N+](=O)[O-])ccn1 | 23.1 µM (inactive) | 40 µM (inactive) | 45.1 µM (inactive) | 20.9 µM (inactive) | 21.5 µM (inactive) | > 100 µM (inactive) | 38.1 µM (inactive) | 26.8 µM (inactive) | 30.3 µM (inactive) | 41.6 µM (inactive) | > 100 µM (inactive) | 30.8 µM (inactive) | 36.7 µM (inactive) | 46.8 µM (inactive) | > 100 µM (inactive) | 30.1 µM (inactive) | 70.3 µM (inactive) | > 100 µM (inactive) | 34 µM (inactive) |  |
| CCCCCC/C=C\CCCCCCCCC(=O)c1cccc(OC)c1OC | 71 µM (inactive) | > 100 µM (inactive) | 34 µM (inactive) | 40.2 µM (inactive) | 27.5 µM (inactive) | > 100 µM (inactive) |  | 45.7 µM (inactive) | 29.2 µM (inactive) | 21 µM (inactive) | > 100 µM (inactive) | > 100 µM (inactive) | > 100 µM (inactive) | 65.2 µM (inactive) | > 100 µM (inactive) | 16.8 µM (inactive) | > 100 µM (inactive) | > 100 µM (inactive) | > 100 µM (inactive) |  |
| COC(=O)CN1C(=O)C2(C(=O)OC)OC1(c1ccc([N+](=O)[O-])cc1)C1C(=O)N(c3ccccc3)C(=O)C12 (stereo unspecified) | > 100 µM (inactive) |  |  | > 100 µM (inactive) |  | > 100 µM (inactive) |  | > 100 µM (inactive) | > 100 µM (inactive) | > 100 µM (inactive) | > 100 µM (inactive) | > 100 µM (inactive) | > 100 µM (inactive) | > 100 µM (inactive) | > 100 µM (inactive) | > 100 µM (inactive) | > 100 µM (inactive) | > 100 µM (inactive) | > 100 µM (inactive) |  |
